# Assay results as given in patent publication US20070155698A1, “Oxazaborolidines as bacteria effectors” (priority 2003, published 2007).
# Read-outs that look alike come from different tables or passages of the source.
# Legend:
# [1] = system: AI-2 reporter strain Vibrio harveyi BB170; assay: Induction of bioluminescence in the AI-2 reporter strain (quorum sensing); format: cell-based
# Protocol: Bright overnight culture was diluted 1:5000 and the bioluminescence was traced along growth of the diluted bacterial culture. BNO-1 in tested concentrations was added at start of the bacterial growth. For calculation of fold induction was used the bioluminescence levels at 3 hr after start of the growth.
# (§1) Luminescence was monitored by Lumac/3M Biocounter M2010, Netherlands. Culture density was measured as CFU on selective solid LM (L-marine) medium per ml of culture. Relative luminescence (“bioluminescence” in figures) was calculated as quotient of luminescence and culture density and expressed in relative light units (RLU, count/10^6 CFU).
# (§2) Fold induction was calculated as relation between induced by BNO-1 and not induced relative luminescence. A measure of inhibition was defined as relation of induced by AI-2 relative luminescence in the presence and in the absence of BNO-2.
# [2] = system: S. mutans ATCC 27351; assay: Minimal inhibitory concentration (MIC), turbidity of overnight growth; format: cell-based; settings: for MIC: Streptococcus mutans, read-out: MIC Mean
# Protocol: Sterile microculture dishes containing multiple wells were used to determine the minimal inhibitory concentration MIC) of eight derivatives of oxazborolidines. Each well contained 120 μl of brain heart infusion medium, 15 μl of an overnight suspension of S. mutans ATCC 27351 adjusted to 1 OD540 nm and 15 μl of the tested compound. Each compound was tested at five different concentrations between 0-50 mM. Each experiment was repeated twice. These cultures were incubated at 37° C. in atmosphere enriched in 5% CO2 for 24 hours. Bacteria growth was determined as turbidity of the over night growth and was determined by computerized ELISA reader (Thermomax microplate reader, Molecular Devices, USA) at 650 nm. Control cultures of bacteria with no oxazaborolidines added and media broth with the oxzaborilidines added but with no bacteria were conducted.
# [3] = system: AI-2 reporter strain Vibrio harveyi BB170; assay: Inhibition of AI-2-induced bioluminescence (quorum sensing); format: cell-based; settings: added together with exogenous AI-2
# Protocol: Bright overnight culture was diluted 1:5000 and the bioluminescence was traced along growth of the diluted bacterial culture at the presence of AI-2 which was added at start of the bacterial growth in the induced concentration. BNO-2 in tested concentrations was added at start of the bacterial growth. The residual bioluminescence is expressed as part of maximal, AI-2-inducted and non-inhibited bioluminescence. For the calculation was used bioluminescence level at 2.5 hr after start of the growth.
# as §1, §2
# [4] = system: bacterial adhesion to hydroxyapatite (HA) beads; assay: Adhesion of radioactively labeled bacteria to hydroxyapatite beads; format: cell-based; settings: 60 mM
# Protocol: 40 mg samples of hydroxyapatite (HA) beads (Ceramic hydroxyapatite type I, 80 um, Bio-Rad Laboratories, Hercules, Calif., USA)) (surface area, 0.63 cm^2/mg) were equilibrated with 3 washes of buffered KCl to which 250 μl of labeled radioactive bacteria (prepared as described above), 400 μl of the tested boronic compound and 50 μl of 700 mM sucrose (in KCl buffer solution) were added. The mixture was incubated for 60 min at 37 C with gentle rotation. At the end of the incubation period, the beads were washed 3 times with buffered KCl for removal of unbound components, especially the non-adsorbed labeled bacteria, and then rinsed with 2 ml ethanol into vials containing 10 ml scintillation fluid (Ecoscint A, National Diagnostics, Manville, N.J.). The amount of radioactively labeled bacteria adsorbed onto the HA beads was measured by scintillation counting (BETAmatic scintillation counter (Koutron®, Basel, Switzerland). Results are expressed as percent of bacterial adhesion in comparison to a control group containing no agent.
# [5] = Effect of pH on the oxazaborolidine derivatives (11B NMR); format: physicochemical; settings: pH=10.8
# Excerpt: At pH=10.8, the free n-butylboronic acid has a chemical shift of 19.974 ppm, while BNO3, the B-butyl containing derivative gives two peaks, one at 24.868 ppm (90%) which is the intermediate and a peak at 6.8 ppm (10%) that belongs to the mentioned above complex. At further basic conditions, a peak at 5.2 ppm exist which indicate a complete conversion to an ate-complex moiety.
# On the other hand, the B-phenyl containing derivatives are converted to the ate-complex once they are fully dissolved in H2O, the ate-complex appears at 5.461 ppm in the ^11B NMR.
# [6] = ATCC27351, S. mutans, 24 hours, 37° C.
"MIC [2, 6] [µM]",Compound,"antibacterial efficacy against S. mutans (MIC based, in words) [2]","MIC Range ([2]; S. mutans, 24 hours, 37° C.)",further results
–,"CC1C(c2ccccc2)OB(c2ccccc2)N1C (stereo not drawn) [BNO1, 3,4-dimethyl-2,5-diphenyl-1,3,2-oxazaborolidine]",most active,0.77 to 2.33 mM,"induction of bioluminescence of Vibrio harveyi BB170 ([1]; dose dependent, sensor 1− sensor 2+): induced; induction of bioluminescence in mutants with sensor 2− ([1]; sensor 2− mutants): do not react; MIC ([2]; ATCC27351, 24 h): 1550 µM"
1330,"CC1NB(c2ccccc2)OC1c1ccccc1 (stereo not drawn) [BNO4, 4-methyl-2,5-diphenyl-1,3,2-oxazaborolidine]",–,0.90 to 1.75 mM,–
530,"CCCCB1OC(c2ccccc2)C(C)N1C (stereo not drawn) [BNO5, 2-butyl-3,4-dimethyl-5-phenyl-1,3,2-oxazaborolidine]",most active,0.26 to 0.80 mM,–
2830,"CCCCB1NC(C)C(c2ccccc2)O1 (stereo not drawn) [BNO6, 2-butyl-4-methyl-5-phenyl-1,3,2-oxazaborolidine]",–,1.90 to 3.75 mM,–
–,"[(2-)-N,O,O′[2,2′-Iminobis[ethanolato]]]-2-n-butylboron [BNO7]",weakest activity,4.5 to 9.0 mM,"MIC Mean ([2]; S. mutans, 24 hours, 37° C.): 6750 µM"
–,"[(2-)-N,O,O′[2,2′-Iminobis[ethanolato]]]-2-phenylboron [BNO8]",weakest activity,4.5-9. mM,"MIC Mean ([2]; S. mutans, 24 hours, 37° C.): 6750 µM"

Compound,"MIC [2, 6] [µM]","antibacterial efficacy against S. mutans (MIC based, in words) [2]","MIC Range ([2]; S. mutans, 24 hours, 37° C.)",further results
"CC1(C)COB(c2ccccc2)N1 [BNO2, 4,4-dimethyl-2-phenyl-1,3,2-oxazaborolidine]",6000,–,2 to 10 mM,inhibition of the ability of exogenous AI-2 to induce bioluminescence [3]: strongly inhibited; promotion of bacterial adhesion [4]: 37%
"CCCCB1NC(C)(C)CO1 [BNO3, 2-butyl-4,4-dimethyl-1,3,2-oxazaborolidine]",3380,–,2.25 to 4.5 mM,reduction of bacterial capability to adhere to hydroxyapatite surface [4]: 63%; share of ate-complex (11B NMR peak at 6.8 ppm) [5]: 10%; share of intermediate (11B NMR peak at 24.868 ppm) [5]: 90%
